What was measured:
[1] = target: T1, human 5-hydroxytryptamine-2C (h5-HT2C) receptor (Homo sapiens, UniProt P28335); assay: [125I]DOI binding to membranes of CHO cells expressing the human 5-HT2C receptor; details: [125I]DOI radioligand, CHO cell membranes, room temperature 60 min; read-out: 5-HT2C Affinity Ki
T1 construct: expressed in transfected cells; host or cells: CHO (Chinese Hamster Ovary) cells; membranes
T1 sequence (P28335 33-458): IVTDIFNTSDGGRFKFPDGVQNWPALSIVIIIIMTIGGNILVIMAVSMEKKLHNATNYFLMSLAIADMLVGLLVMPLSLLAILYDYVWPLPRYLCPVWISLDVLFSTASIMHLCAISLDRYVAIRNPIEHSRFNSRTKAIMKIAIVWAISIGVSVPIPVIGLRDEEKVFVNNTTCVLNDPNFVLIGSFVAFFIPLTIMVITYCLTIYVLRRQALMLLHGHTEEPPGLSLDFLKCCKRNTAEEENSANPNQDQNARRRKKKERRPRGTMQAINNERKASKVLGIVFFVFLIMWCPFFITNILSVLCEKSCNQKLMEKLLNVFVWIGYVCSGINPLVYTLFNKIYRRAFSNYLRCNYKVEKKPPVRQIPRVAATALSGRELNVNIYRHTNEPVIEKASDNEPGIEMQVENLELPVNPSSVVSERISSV

human 5-HT2C receptor = target: T2, human 5-HT2C receptor (Homo sapiens, UniProt P28335); assay: 5-HT2C receptor-stimulated calcium mobilization (FLIPR) in CHO cells; assay type: cell-based; details: for EC50: calcium mobilization, CHO cells stably expressing human 5-HT2C, read-out: 5-HT2C Function EC50; for 5-HT2C Function Emax (%) / Emax: percentage of the response observed with a maximally effective concentration of 5-HT; for Emax: CHO, read-out: 5-HT2C Function Emax (%);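 on all read-outs here: Fluo-3-AM fluorescence read on FLIPR every 1 s, agonist added after 10 baseline reads, response taken as peak minus lowest raw fluorescence count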
T2 sequence (P28335 33-458): T1 sequence (P28335 33-458)

Row | SMILES | Ki [1] | EC50 (human 5-HT2C receptor) | 5-HT2C Function Emax (%) (human 5-HT2C receptor) | Emax (human 5-HT2C receptor)
1 | NCC1Cc2cccc(-c3cccc(Cl)c3)c2O1 (single isomer, unassigned; (+)) [Example 66, (+)-1-[7-(3-chlorophenyl)-2,3-dihydro-1-benzofuran-2-yl]methanamine] | 5 nM | 250 nM | 100% | –
2 | Cc1ccc(-c2cccc3c2OC(CN)C3)cc1 (single isomer, unassigned; (+)) [Example 71, (+)-1-[7-(4-methylphenyl)-2,3-dihydro-1-benzofuran-2-yl]methanamine] | 1 nM | 1.4 nM | – | 100%
3 | NCC1Cc2cccc(-c3ccc(F)cc3)c2O1 (single isomer, unassigned; (+)) [Example 74, (+)-1-[7-(4-fluorophenyl)-2,3-dihydro-1-benzofuran-2-yl]methanamine] | 3 nM | 11 nM | – | 100%
4 | NCC1Cc2cccc(-c3ccc(Cl)cc3)c2O1 (single isomer, unassigned; (+)) [Example 77, (+)-1-[7-(4-chlorophenyl)-2,3-dihydro-1-benzofuran-2-yl]methanamine] | 2 nM | 8 nM | – | 100%
5 | COc1ccc(-c2cccc3c2OC(CN)C3)cc1 (single isomer, unassigned; (+)) [Example 80, (+)-1-[7-(4-methoxyphenyl)-2,3-dihydro-1-benzofuran-2-yl]methanamine] | 1 nM | 17 nM | 90% | –
6 | CNCC1Cc2cc(Cl)cc(-c3ccsc3)c2O1 (single isomer, unassigned; (+)) [Example 93, (+)-N-[(5-chloro-7-thien-3-yl-2,3-dihydro-1-benzofuran-2-yl)methyl]-N-methylamine] | 13 nM | 874 nM | – | 80%
7 | Cc1cccc(C)c1-c1cccc2c1CC(CN)O2 (single isomer, unassigned; (+)) [Example 126, (+)-1-[4-(2,6-dimethylphenyl)-2,3-dihydro-1-benzofuran-2-yl]methanamine] | 17 nM | 2720 nM | – | 40%
8 | COc1ccccc1-c1cccc2c1OC(CN)C2 (single isomer, unassigned; (+)) [Example 128, (+)-1-[7-(2-methoxyphenyl)-2,3-dihydro-1-benzofuran-2-yl]methanamine] | 41 nM | 24 nM | – | 70%
9 | NCC1Cc2cccc(-c3ccccc3Cl)c2O1 (single isomer, unassigned; (+)) [Example 130, (+)-1-[7-(2-chlorophenyl)-2,3-dihydro-1-benzofuran-2-yl]methanamine] | 4.8 nM | 54 nM | 80% | –
10 | NCC1Cc2cccc(-c3cccc(F)c3)c2O1 (single isomer, unassigned; (+)) [Example 131, (+)-1-[7-(3-fluorophenyl)-2,3-dihydro-1-benzofuran-2-yl]methanamine] | 1.5 nM | 34 nM | 90% | –
11 | COc1cccc(-c2cccc3c2OC(CN)C3)c1 (single isomer, unassigned; (+)) [Example 133, (+)-1-[7-(3-methoxyphenyl)-2,3-dihydro-1-benzofuran-2-yl]methanamine] | 3.6 nM | 66 nM | – | 80%
12 | NCC1Cc2cccc(-c3ccc(C(F)(F)F)cc3)c2O1 (single isomer, unassigned; (+)) [Example 137, (+)-1-{7-[4-(trifluoromethyl)phenyl]-2,3-dihydro-1-benzofuran-2-yl}methanamine] | 1.2 nM | 473 nM | 90% | –
13 | NCC1Cc2cccc(-c3ccc(F)cc3F)c2O1 (single isomer, unassigned; (+)) [Example 147, (+)-1-[7-(2,4-difluorophenyl)-2,3-dihydro-1-benzofuran-2-yl]methanamine] | 1.3 nM | 7 nM | – | 90%
14 | NCC1Cc2cc(F)cc(-c3ccccc3C(F)(F)F)c2O1 (single isomer, unassigned; (+)) [Example 152, (+)-1-{5-fluoro-7-[2-(trifluoromethyl)phenyl]-2,3-dihydro-1-benzofuran-2-yl}methanamine] | 6.6 nM | 202 nM | 70% | –
15 | NCC1Cc2cccc(-c3cccnc3)c2O1 (single isomer, unassigned; (+)) [Example 171, (+)-{[7-pyridin-3-yl-2,3-dihydro-1-benzofuran-2-yl]methyl}amine] | 0.88 nM | 0.7 nM | – | 100%
16 | NCC1Cc2cc(F)cc(-c3cccnc3)c2O1 (single isomer, unassigned; (+)) [Example 208, (+)-{[5-fluoro-7-pyridin-3-yl-2,3-dihydro-1-benzofuran-2-yl]methyl}amine] | 1.9 nM | 0.36 nM | 100% | –
17 | CNCC1Cc2cccc(-c3ccccc3C)c2O1 (single isomer, unassigned; (+)) [Example 408, (+)-N-methyl-1-[7-(2-methylphenyl)-2,3-dihydro-1-benzofuran-2-yl]methanamine] | 0.46 nM | 6 nM | 90% | –
18 | CNCC1Cc2cccc(-c3ccccc3Cl)c2O1 (single isomer, unassigned; (+)) [Example 410, (+)-N-methyl-1-[7-(2-chlorophenyl)-2,3-dihydro-1-benzofuran-2-yl]methanamine] | 0.08 nM | 0.05 nM | – | 90%

Other lines, results leading:

Row | Ki [1] | EC50 (human 5-HT2C receptor) | 5-HT2C Function Emax (%) (human 5-HT2C receptor) | Emax (human 5-HT2C receptor) | SMILES
19 | 5 nM | 557 nM | – | 100% | NCC1Cc2cc(Cl)cc(-c3ccccc3)c2O1 (single isomer, unassigned; (+)) [Example 85, (+)-1-(5-chloro-7-phenyl-2,3-dihydro-1-benzofuran-2-yl)methanamine]
20 | 1 nM | 27 nM | 100% | – | Cc1ccccc1-c1cc(Cl)cc2c1OC(CN)C2 (single isomer, unassigned; (+)) [Example 96, (+)-1-[5-chloro-7-(2-methylphenyl)-2,3-dihydro-1-benzofuran-2-yl]methanamine]
21 | 0.2 nM | 0.32 nM | 100% | – | NCC1Cc2cc(F)cc(-c3ccccc3Cl)c2O1 (single isomer, unassigned; (+)) [Example 101, (+)-1-[7-(2-chlorophenyl)-5-fluoro-2,3-dihydro-1-benzofuran-2-yl]methanamine]
22 | 1 nM | 4 nM | 95% | – | Cc1ccccc1-c1cc(F)cc2c1OC(CN)C2 (single isomer, unassigned; (+)) [Example 105, (+)-1-[5-fluoro-7-(2-methylphenyl)-2,3-dihydro-1-benzofuran-2-yl]methanamine]
23 | 1.6 nM | 101 nM | 80% | – | NCC1Cc2cccc(-c3c(Cl)cccc3Cl)c2O1 (single isomer, unassigned; (+)) [Example 142, (+)-1-[7-(2,6-dichlorophenyl)-2,3-dihydro-1-benzofuran-2-yl]methanamine]
24 | 4.1 nM | 74 nM | 100% | – | NCC1Cc2cccc(-c3ccc(Cl)cc3Cl)c2O1 (single isomer, unassigned; (+)) [Example 150, (+)-1-[7-(2,4-dichlorophenyl)-2,3-dihydro-1-benzofuran-2-yl]methanamine]
25 | 1.1 nM | 42 nM | – | 100% | Cc1cc(Cl)ccc1-c1cccc2c1OC(CN)C2 (single isomer, unassigned; (+)) [Example 158, (+)-{[7-(4-chloro-2-methylphenyl)-2,3-dihydro-1-benzofuran-2-yl]methyl}amine]
26 | 0.28 nM | 0.3 nM | 100% | – | NCC1Cc2cccc(-c3cc(Cl)ccc3Cl)c2O1 (single isomer, unassigned; (+)) [Example 164, (+)-{[7-(2,5-dichlorophenyl)-2,3-dihydro-1-benzofuran-2-yl]methyl}amine]
27 | 8.6 nM | 251 nM | 90% | – | NCC1Cc2cc(Cl)cc(-c3ccc(Cl)cc3Cl)c2O1 (single isomer, unassigned; (+)) [Example 253, (+)-{[5-chloro-7-(2,4-dichlorophenyl)-2,3-dihydro-1-benzofuran-2-yl]methyl}amine]
28 | 0.19 nM | 0.1 nM | 100% | – | Cc1cc2c(c(-c3ccc(Cl)cc3Cl)c1)OC(CN)C2 (single isomer, unassigned; (+)) [Example 299, (+)-{[7-(2,4-dichlorophenyl)-5-methyl-2,3-dihydro-1-benzofuran-2-yl]methyl}amine]
29 | 1.4 nM | 4 nM | – | 90% | COc1cc2c(c(-c3cc(Cl)ccc3Cl)c1)OC(CN)C2 (single isomer, unassigned; (+)) [Example 368, (+)-{[7-(2,5-dichlorophenyl)-5-methoxy-2,3-dihydro-1-benzofuran-2-yl]methyl}amine]
